≈ marks a conversion by molar mass, not a printed value.
How the values were obtained:
[1] = tested on: Streptococcus pyogenes C203; assay: MIC, standard broth micro-dilution assay; format: cell-based
Method: (§1) The MIC's were determined using a standard broth micro-dilution assay.

Entercoccus faecalis 276 = assay: MIC, standard broth micro-dilution assay; format: cell-based
Method: (§2) The formula I compounds have in vitro and in vivo activity against Gram-positive pathogenic bacteria. The MIC's were determined using a standard broth micro-dilution assay.

[2] = tested on: Entercoccus gallinarum 245; assay: MIC, standard broth micro-dilution assay; format: cell-based
Method: as §2

Entercoccus faecium 180 = assay: MIC, standard broth micro-dilution assay; format: cell-based
Method: as §1

[3] = tested on: Haemophilus influenzae RD; assay: MIC, standard broth micro-dilution assay; format: cell-based
Method: as §1

[4] = tested on: Staphylococcus aureus 446; assay: MIC, standard broth micro-dilution assay; format: cell-based
Method: as §1

[5] = tested on: Staphylococcus aureus 447; assay: MIC, standard broth micro-dilution assay; format: cell-based
Method: as §1

[6] = tested on: Staphylococcus aureus 491; assay: MIC, standard broth micro-dilution assay; format: cell-based
Method: as §1

[7] = tested on: Staphylococcus epidermidis 270; assay: MIC, standard broth micro-dilution assay; format: cell-based
Method: as §1

[8] = tested on: Staphylococcus haemolyticus 105; assay: MIC, standard broth micro-dilution assay; format: cell-based
Method: as §1

[9] = tested on: Staphylococcus haemolyticus 415; assay: MIC, standard broth micro-dilution assay; format: cell-based
Method: as §1

[10] = tested on: Entercoccus faecalis 2041; assay: MIC, standard broth micro-dilution assay; format: cell-based
Method: as §2

Stapylococcus aureus = assay: ED50 in experimentally infected mice; format: in vivo; details: mice infected with Stapylococcus aureus, two doses
Streptococcus pyogenes = assay: ED50 in experimentally infected mice; format: in vivo; details: mice infected with Streptococcus pyogenes, two doses
Streptococcus pneumoniae = assay: ED50 in experimentally infected mice; format: in vivo; details: mice infected with Streptococcus pneumoniae, two doses
[11] = tested on: vancomycin-resistant enterococci (Enterococcus faecium and Enterococcus faecalis); assay: mean geometric MIC, broth micro-dilution; format: cell-based; details: 24-hour incubation
[12] = tested on: vancomycin-susceptibie enterococci (Enterococcus faecium and Enterococcus faecalis); assay: mean geometric MIC, broth micro-dilution; format: cell-based; details: 24-hour incubation
Pedicoccus acidilacti = assay: MIC, agar dilution on brain-heart infusion agar; format: cell-based; details: Pedioccccus acidilacti (mean of 10)
Pediococcus pentosaceus = assay: MIC, agar dilution on brain-heart infusion agar; format: cell-based; details: Pediococcus pentosaceus (mean of 2)
Leuconostoc lactis = assay: MIC, agar dilution on brain-heart infusion agar; format: cell-based; details: Leuconostoc lactis (mean of 2)
[13] = tested on: Leuconostoc mesenteroides; assay: MIC, agar dilution on brain-heart infusion agar; format: cell-based; details: Leuconostoc mesenteroides (mean of 4)
[14] = tested on: Leuconostoc pseudomesenteroides; assay: MIC, agar dilution on brain-heart infusion agar; format: cell-based
Leuconostoc citreum = assay: MIC, agar dilution on brain-heart infusion agar; format: cell-based
Lactobacillus confusus = assay: MIC, agar dilution on brain-heart infusion agar; format: cell-based
[15] = tested on: Entercoccus faecium 180-1; assay: MIC, standard broth micro-dilution assay; format: cell-based
Method: as §1

Escherichia coli EC14 = assay: MIC, standard broth micro-dilution assay; format: cell-based
Method: as §1

[16] = tested on: Staphylococcus aureus 489; assay: MIC, standard broth micro-dilution assay; format: cell-based
Method: as §1

[17] = tested on: Staphylococcus aureus SA1199A; assay: MIC, standard broth micro-dilution assay; format: cell-based
Method: as §1

[18] = tested on: Staphylococcus aureus SA1199; assay: MIC, standard broth micro-dilution assay; format: cell-based
Method: as §1

[19] = tested on: Staphylococcus aureus X400; assay: MIC, standard broth micro-dilution assay; format: cell-based
Method: as §1

[20] = tested on: Staphylococcus aureus X778; assay: MIC, standard broth micro-dilution assay; format: cell-based
Method: as §1

[21] = tested on: Streptococcus pneumoniae P1; assay: MIC, standard broth micro-dilution assay; format: cell-based
Method: as §1

[22] = tested on: Staphylococcus aureus S13E; format: cell-based
Method: as §1

[23] = tested on: Staphylococcus aureus SA1199B; format: cell-based
Method: as §1

Compound	MIC [1] [µg/mL]	MIC (Entercoccus faecalis 276) [µg/mL]	MIC [2] [µg/mL]	MIC (Entercoccus faecium 180) [µg/mL]	MIC [4] [µg/mL]	MIC [5] [µg/mL]	MIC [6] [µg/mL]	MIC [7] [µg/mL]	MIC [8] [µg/mL]	MIC [9] [µg/mL]	MIC [10] [µg/mL]	also measured
CCCCCCCCCCCCOc1ccc(CNC2(C)CC(OC3C(Oc4c5cc6cc4Oc4ccc(cc4Cl)C(OC4CC(C)(N)C(O)C(C)O4)C4NC(=O)C(NC(=O)C6NC(=O)C(CC(N)=O)NC(=O)C(NC(=O)C(CC(C)C)NC)C(O)c6ccc(c(Cl)c6)O5)c5ccc(O)c(c5)-c5c(O)cc(O)cc5C(C(=O)O)NC4=O)OC(CO)C(O)C3O)OC(C)C2O)cc1 (centres unmarked) [Compound 10, 4-dodecyloxybenzyl]	0.5 (≈ 0.268 µM)	18 (≈ 9.64 µM)	8 (≈ 4.29 µM)									
CNC(CC(C)C)C(=O)NC1C(=O)NC(CC(N)=O)C(=O)NC2C(=O)NC3C(=O)NC(C(=O)NC(C(=O)O)c4cc(O)cc(O)c4-c4cc3ccc4O)C(OC3CC(C)(N)C(O)C(C)O3)c3ccc(c(Cl)c3)Oc3cc2cc(c3OC2OC(CO)C(O)C(O)C2OC2CC(C)(NCc3cccc4c([N+](=O)[O-])cccc34)C(O)C(C)O2)Oc2ccc(cc2Cl)C1O (centres unmarked) [Compound 25, 5-nitro-1-naphthylmethyl]		0.25 (≈ 0.141 µM)	≤ 0.06	0.5 (≈ 0.281 µM)	0.5 (≈ 0.281 µM)	0.25 (≈ 0.141 µM)	0.125 (≈ 0.0703 µM)	0.5 (≈ 0.281 µM)	1 (≈ 0.563 µM)	32 (≈ 18 µM)	0.25 (≈ 0.141 µM)	MIC [3]: 32 µg/mL (≈ 18 µM); ED50 (Stapylococcus aureus): 0.16 mg/kg/2; ED50 (Streptococcus pyogenes): 0.087 mg/kg/2; ED50 (Streptococcus pneumoniae): 0.088 mg/kg/2; mean geometric MIC, Vancomycin Resistant Strains [11]: 4.0 µg/mL; mean geometric MIC, Vancomycin Sensitive Strains [12]: 0.22 µg/mL
CNC(CC(C)C)C(=O)NC1C(=O)NC(CC(N)=O)C(=O)NC2C(=O)NC3C(=O)NC(C(=O)NC(C(=O)O)c4cc(O)cc(O)c4-c4cc3ccc4O)C(OC3CC(C)(N)C(O)C(C)O3)c3ccc(c(Cl)c3)Oc3cc2cc(c3OC2OC(CO)C(O)C(O)C2OC2CC(C)(NCc3ccc(-c4ccc(-c5ccccc5)cc4)cc3)C(O)C(C)O2)Oc2ccc(cc2Cl)C1O (centres unmarked) [Compound 36, 4-[4-biphenyl]benzyl]		2 (≈ 1.09 µM)	0.25 (≈ 0.136 µM)								1 (≈ 0.545 µM)	MIC (Pedicoccus acidilacti): 9.2 µg/mL (≈ 5.01 µM); MIC (Pediococcus pentosaceus): 16 µg/mL (≈ 8.72 µM); MIC (Leuconostoc lactis): 16 µg/mL (≈ 8.72 µM); MIC [13]: 16 µg/mL (≈ 8.72 µM); MIC [14]: 32 µg/mL (≈ 17.4 µM); MIC (Leuconostoc citreum): 32 µg/mL (≈ 17.4 µM); MIC (Lactobacillus confusus): 32 µg/mL (≈ 17.4 µM)
CCCCCOc1ccc(-c2ccc(CNC3(C)CC(OC4C(Oc5c6cc7cc5Oc5ccc(cc5Cl)C(OC5CC(C)(N)C(O)C(C)O5)C5NC(=O)C(NC(=O)C7NC(=O)C(CC(N)=O)NC(=O)C(NC(=O)C(CC(C)C)NC)C(O)c7ccc(c(Cl)c7)O6)c6ccc(O)c(c6)-c6c(O)cc(O)cc6C(C(=O)O)NC5=O)OC(CO)C(O)C4O)OC(C)C3O)cc2)cc1 (centres unmarked) [Compound 40, 4-[4-pentoxyphenyl]benzyl]	≤ 0.06	2 (≈ 1.08 µM)	11 (≈ 5.96 µM)	1 (≈ 0.542 µM)	4 (≈ 2.17 µM)	2 (≈ 1.08 µM)	4 (≈ 2.17 µM)	1 (≈ 0.542 µM)	2 (≈ 1.08 µM)	2 (≈ 1.08 µM)	1 (≈ 0.542 µM)	MIC [15]: 2 µg/mL (≈ 1.08 µM); MIC (Escherichia coli EC14): > 64 µg/mL; MIC [16]: 4 µg/mL (≈ 2.17 µM); MIC [17]: 0.5 µg/mL (≈ 0.271 µM); MIC [18]: 4 µg/mL (≈ 2.17 µM); MIC [19]: 4 µg/mL (≈ 2.17 µM); MIC [20]: 4 µg/mL (≈ 2.17 µM); MIC [21]: ≤ 0.06 µg/mL; MIC [22]: 4 µg/mL (≈ 2.17 µM); MIC [23]: 8 µg/mL (≈ 4.34 µM)

Reference: patent US5843889A, “Glycopeptide antibiotic derivatives” (Eli Lilly and Company, priority 1997, dated 1998)
